Source: US20170029494A1, “Antigen Binding Constructs” (Glaxo Group Limited, priority 2011, published 2017)
“And” between values parts separate entries of the source, which are not always exact repeats. Equal values may be shown once. Each block holds one molecule with its values, some of them ahead of it.

Key:
[1] = tested on: human VEGF165 induced blood-retinal breakdown; test: VEGF induced blood-retinal breakdown: rabbit retinal leakage model; format: in vivo; design: Geometric mean (right eye values adjusted for left eye values): unit not given here; conditions: for % reduction vs vehicle / Ratio vs Vehicle: Example 9, Table 4B; for Rt ratio of vitreoretinal fluorescein contents between right-induced and left eyes: Example 9; for Geometric mean (right eye values adjusted for left eye values): Example 42, Table 15B (i)
[2] = tested on: VEGF165-induced proliferation of human umbilical vein endothelial cells (HUVEC); test: Human Umbilical Cord Endothelial Cell (HUVEC) proliferation assay; format: cell-based; conditions: for Predicted Means for Max % Inhibition, Estimate: weighted mixed model analysis
Experimental: The assay measures the extent of endothelial cell proliferation induced by a defined concentration of VEGF165 and the ability of VEGF antagonists to block this effect. HUVECs were seeded at 5000 cells per well in 96-well gelatine-coated plates, leaving outer wells free of cells, and incubated for several hours to permit adherence. Test molecules were assayed at equimolar concentrations (max 3.33×10^−08M) with a 2-fold serial dilution, each in triplicate. The VEGF165 was prepared in basal medium to achieve 75 ng/ml final concentration. Medium was removed manually from the cell monolayers and 50 μl basal media was added to prevent the cells from drying out. 25 μl VEGF165-containing medium and 25 μl basal medium or test antibody-containing medium was added as appropriate. Cells were incubated for 72 hrs, after which time the total number of cells was determined using Cell Titre Glo.
The data was analysed using GraphPad Prism using a Sigmodial curve fit, variable slope cf a non-linear regression (variable slope). Individual curve fits were fitted for each molecule and at each day. Due to some poor fitting, it was decided to introduce constraints for the curve where a plateau was not observed at the lower concentration. This constraint would be equal to the mean of the points at the lowest concentration. Data was manually selected as to whether the minimum was constrained or not, and the curve fit and parameters were automatically updated based upon this criteria selection. Estimates of the curve maxima and the standard error were analysed using a weighted mixed model analysis of variance, using 1/(standard error)^2, [SE]^2, as a weighting. The analysis adjusted for variability between plates and days using random effects terms. […] The same analysis was then performed on the log 10 scale for the IC50, and the results back transformed.
The data was analysed using GraphPad Prism using a Sigmodial curve fit, variable slope cf a non-linear regression (variable slope). Individual curve fits were fitted for each molecule and at each day. Due to some poor fitting, it was decided to introduce constraints for the curve where a plateau was not observed at the lower concentration. One plate was excluded from the analysis due to poor curve fitting despite constraints. This constraint would be equal to the mean of the points at the lowest concentration. Data was manually selected as to whether the minimum was constrained or not, and the curve fit and parameters were automatically updated based upon this criteria selection. Estimates of the curve maxima and the standard error were analysed using a weighted mixed model analysis of variance, using 1/(standard error)^2, [SE]^2, as a weighting. The analysis adjusted for variability between plates and days using random effects terms. […]

[3] = molecular target: VEGFR1 (Flt1) (Homo sapiens, UniProt P17948); conditions: background statement; cited from earlier work
Sequence of VEGFR1 (Flt1) (P17948 27-1338, species assumed): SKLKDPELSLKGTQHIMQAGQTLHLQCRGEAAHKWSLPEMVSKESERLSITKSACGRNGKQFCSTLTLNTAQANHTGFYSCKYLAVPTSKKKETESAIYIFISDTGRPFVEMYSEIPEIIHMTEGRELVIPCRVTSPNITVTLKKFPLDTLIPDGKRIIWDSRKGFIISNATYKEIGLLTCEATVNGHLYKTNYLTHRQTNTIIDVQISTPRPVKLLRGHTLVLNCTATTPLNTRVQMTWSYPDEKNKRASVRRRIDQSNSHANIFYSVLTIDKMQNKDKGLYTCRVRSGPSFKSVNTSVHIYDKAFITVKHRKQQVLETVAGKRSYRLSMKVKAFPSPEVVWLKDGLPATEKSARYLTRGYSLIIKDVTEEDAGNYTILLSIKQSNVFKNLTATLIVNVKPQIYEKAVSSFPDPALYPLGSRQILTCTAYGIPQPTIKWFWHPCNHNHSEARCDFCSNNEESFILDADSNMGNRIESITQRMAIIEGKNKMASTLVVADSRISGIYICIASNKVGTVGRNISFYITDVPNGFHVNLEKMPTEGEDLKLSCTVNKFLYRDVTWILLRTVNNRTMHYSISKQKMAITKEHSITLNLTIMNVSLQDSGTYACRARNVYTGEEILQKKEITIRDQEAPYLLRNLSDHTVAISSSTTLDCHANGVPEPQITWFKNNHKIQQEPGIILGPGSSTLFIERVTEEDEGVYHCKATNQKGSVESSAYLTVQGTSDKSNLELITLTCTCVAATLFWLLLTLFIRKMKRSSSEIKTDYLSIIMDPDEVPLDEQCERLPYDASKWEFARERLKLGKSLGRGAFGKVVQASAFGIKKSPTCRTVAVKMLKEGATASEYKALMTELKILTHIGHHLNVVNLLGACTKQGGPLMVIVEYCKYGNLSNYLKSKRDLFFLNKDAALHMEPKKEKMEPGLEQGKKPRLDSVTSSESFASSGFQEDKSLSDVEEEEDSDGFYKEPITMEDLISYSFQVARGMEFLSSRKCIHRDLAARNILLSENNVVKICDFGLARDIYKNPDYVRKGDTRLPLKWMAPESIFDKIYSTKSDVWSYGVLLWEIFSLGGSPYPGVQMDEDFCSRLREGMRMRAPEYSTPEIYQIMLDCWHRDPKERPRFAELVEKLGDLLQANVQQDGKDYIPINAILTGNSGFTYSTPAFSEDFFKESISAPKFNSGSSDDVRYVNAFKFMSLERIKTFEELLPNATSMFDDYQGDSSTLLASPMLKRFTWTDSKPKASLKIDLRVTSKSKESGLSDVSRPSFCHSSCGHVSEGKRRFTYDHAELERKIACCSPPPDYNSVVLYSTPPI

[4] = molecular target: T1, mVEGF R2 Fc (R&D 443-KD/CF) (mouse, UniProt P35918 20-762); test: MSD on coated mouse VEGF164 (1ug/mL mVEGF capture), detection with sulfo-TAG anti-human IgG Fc
T1 construct: Bought control protein; not shown: Fc part of the bought fusion
T1 sequence (P35918 20-762 limits assumed): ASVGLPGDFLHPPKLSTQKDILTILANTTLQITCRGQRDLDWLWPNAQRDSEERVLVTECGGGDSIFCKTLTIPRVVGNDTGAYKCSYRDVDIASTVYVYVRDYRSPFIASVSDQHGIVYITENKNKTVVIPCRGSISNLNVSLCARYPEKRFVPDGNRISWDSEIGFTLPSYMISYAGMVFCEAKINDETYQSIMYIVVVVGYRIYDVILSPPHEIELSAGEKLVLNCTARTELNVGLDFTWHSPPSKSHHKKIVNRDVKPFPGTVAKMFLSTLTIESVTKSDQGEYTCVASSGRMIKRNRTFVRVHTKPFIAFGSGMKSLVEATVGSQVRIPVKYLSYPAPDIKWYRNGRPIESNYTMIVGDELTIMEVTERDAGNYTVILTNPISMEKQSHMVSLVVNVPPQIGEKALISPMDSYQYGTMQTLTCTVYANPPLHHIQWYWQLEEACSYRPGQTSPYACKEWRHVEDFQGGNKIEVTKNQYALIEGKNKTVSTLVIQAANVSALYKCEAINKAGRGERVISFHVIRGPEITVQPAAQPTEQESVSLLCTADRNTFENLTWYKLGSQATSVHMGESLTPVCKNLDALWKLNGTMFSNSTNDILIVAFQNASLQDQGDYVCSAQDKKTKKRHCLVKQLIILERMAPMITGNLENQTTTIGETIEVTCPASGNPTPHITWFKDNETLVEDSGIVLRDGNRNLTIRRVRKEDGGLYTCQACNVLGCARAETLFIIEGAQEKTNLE

[5] = Example 42, Table 15B (ii), 2000 μg/eye
[6] = dose H (high), VEGF induced retinal leakage

Molecule: C[C@]12C=CC(=O)C=C1CC[C@H]1[C@@H]3C[C@@H](O)[C@](O)(C(=O)CO)[C@@]3(C)C[C@H](O)[C@@]12F [Kenacort, Triamcinalone]
- % reduction vs vehicle ([1]; 2000 μg/eye): 85%
- Ratio vs Vehicle ([1]; 2000 μg/eye): 0.1485
- Rt ratio of vitreoretinal fluorescein contents between right-induced and left eyes ([1]; Kenacort 2000 μg/eye IVT Day -7): 1.15±0.61
- Geometric mean (right eye values adjusted for left eye values) ([1]; 2000 μg/eye): 10205.21
- % reduction [1, 5]: 80% and 79.9922%
- ratio (to vehicle) [1, 5]: 0.2001

Molecule: Bevacizumab [Avastin]
- inhibit HUVEC proliferation ([2]; Example 8, VEGF165 75 ng/ml, 72 hrs, maximum extent of inhibition): ~100%
- inhibition of VEGF driven HUVEC proliferation (extent) ([2]; Example 18, data not shown): ~100%
- Predicted Means for Max % Inhibition, Estimate ([2]; Table 14A): 73.5423%
- Predicted Means for Max % Inhibition, Estimate ([2]; Table 18A): 71.0316%
- % reduction vs vehicle [1, 6]: 75%
- % reduction vs vehicle ([1]; dose H (high), VEGF induced retinal leakage, listed as Bevacizumab): 75%
- Geometric mean (right eye values adjusted for left eye values) ([1]; dose H, IVT Day -7): 12332.94
- Geometric mean (right eye values adjusted for left eye values) ([1]; dose L): 12037.98
- Geometric mean (right eye values adjusted for left eye values) ([1]; dose L/3): 14592.62
- % reduction ([1]; Example 42, Table 15B (ii), dose H): 75.8207%
- % reduction ([1]; Example 42, Table 15B (ii), dose L): 76.3990%
- % reduction ([1]; Example 42, Table 15B (ii), dose L/3): 71.3905%
- reduction of VEGF induced retinal leakage ([1]; Example 42, the three different doses (H, L, L/3)): 71.4-76.4%

Molecule: Ranibizumab [Lucentis]
- Ratio vs Vehicle ([1]; dose H (high)): 0.1826
- % reduction vs vehicle [1, 6]: 82%
- % reduction vs vehicle ([1]; dose H (high), VEGF induced retinal leakage, listed as Ranibizumab): 82%
- Ratio vs Vehicle ([1]; low dose (L)): 0.2188
- % reduction vs vehicle ([1]; low dose (L), VEGF induced retinal leakage): 78%
- % reduction vs vehicle ([1]; low dose (L), VEGF induced retinal leakage, listed as Ranibizumab): 78%
- Rt ratio of vitreoretinal fluorescein contents between right-induced and left eyes ([1]; IVT Day -7, 500 ng rhVEGF165 Day 0, read Day 2, dose H (high)): 1.05±0.52
- Rt ratio of vitreoretinal fluorescein contents between right-induced and left eyes ([1]; IVT Day -7, 500 ng rhVEGF165 Day 0, read Day 2, low dose (L)): 1.81±1.76

Molecule: VEGF
- Kd [3]: ~0.03 nM

- binding result [4]: binds
B1: mouse VEGF164 (R&D 493-MV/CF) (ligand, UniProt Q00731-2 27-190, looked up)
chain: APTTEGEQKSHEVIKFMDVYQRSYCRPIETLVDIFQEYPDEIEYIFKPSCVPLMRCAGCCNDEALECVPTSESNITMQIMRIKPHQSQHIGEMSFLQHSRCECRPKKDRTKPENHCEPCSERRKHLFVQDPQTCKCSCKNTDSRCKARQLELNERTCRCDKPRR
notes: Bought reagent; also called mVEGF164; murine VEGF164
